Experiments:
IGROV1 = assay: NCI in vitro cytotoxicity (SRB); format: cell-based; details: Homo sapiens, IGROV-1
HL-60(TB) = assay: NCI in vitro cytotoxicity (SRB); format: cell-based; details: Homo sapiens; Leukemia HL-60(TB); 48 h exposure
SN12C = assay: NCI in vitro cytotoxicity (SRB); format: cell-based; details: Homo sapiens; Renal SN12C; 48 h exposure
MDA-MB- = assay: NCI in vitro cytotoxicity (SRB); format: cell-based; details: Homo sapiens; Breast MDA-MB-; 48 h exposure
MALME-3M = assay: NCI in vitro cytotoxicity (SRB); format: cell-based; details: Homo sapiens
OVCAR-3 = assay: NCI in vitro cytotoxicity (SRB); format: cell-based; details: Homo sapiens
Breast panel = assay: NCI screen, panel average; format: cell-based, human; details: for Log10 GI50 (concentration in mol/L): Breast, average of six to eight cell lines; for LC50: Homo sapiens, read-out: Log10 LC50 (concentration in mol/L causing 50% lethality) (converted)
Leukemia panel = assay: NCI screen, panel average; format: cell-based, human; details: for LC50 (50% lethal concentration): Homo sapiens, read-out: Log10 LC50 (concentration in mol/L causing 50% lethality) (converted); for Log10 GI50 (concentration in mol/L): Leukemia, average of six to eight cell lines
SK-MEL-5 = assay: NCI in vitro cytotoxicity (SRB); format: cell-based; details: Homo sapiens; Melanoma SK-MEL-5; 48 h exposure
SK-MEL-28 = assay: NCI in vitro cytotoxicity (SRB); format: cell-based; details: Homo sapiens; Melanoma SK-MEL-28; 48 h exposure
PC-3 = assay: NCI in vitro cytotoxicity (SRB); format: cell-based; details: Homo sapiens; Prostate PC-3; 48 h exposure
COLO 205 = assay: NCI in vitro cytotoxicity (SRB); format: cell-based; details: Homo sapiens; Colon COLO 205; 48 h exposure
SNB-75 = assay: NCI in vitro cytotoxicity (SRB); format: cell-based; details: Homo sapiens; CNS SNB-75; 48 h exposure
786-0 = assay: NCI in vitro cytotoxicity (SRB); format: cell-based; details: Homo sapiens; Renal 786-0; 48 h exposure
UO-31 = assay: NCI in vitro cytotoxicity (SRB); format: cell-based; details: Homo sapiens; Renal UO-31; 48 h exposure
SF-268 = assay: NCI in vitro cytotoxicity (SRB); format: cell-based; details: Homo sapiens
M14 = assay: NCI in vitro cytotoxicity (SRB); format: cell-based; details: Homo sapiens; Melanoma M14; 48 h exposure
NCI-H522 = assay: NCI in vitro cytotoxicity (SRB); format: cell-based; details: Homo sapiens
SR = assay: NCI in vitro cytotoxicity (SRB); format: cell-based; details: Homo sapiens
UACC-62 = assay: NCI in vitro cytotoxicity (SRB); format: cell-based; details: Homo sapiens; Melanoma UACC-62; 48 h exposure
HCC-2998 = assay: NCI in vitro cytotoxicity (SRB); format: cell-based; details: Homo sapiens; Colon HCC-2998; 48 h exposure
ACHN = assay: NCI in vitro cytotoxicity (SRB); format: cell-based; details: Homo sapiens; Renal ACHN; 48 h exposure
Prostate panel = assay: NCI screen, panel average; format: cell-based, human; details: for CC50: Homo sapiens, read-out: Log10 LC50 (concentration in mol/L causing 50% lethality) (converted); for Log10 GI50 (concentration in mol/L): Prostate, average of six to eight cell lines
MCF7 = assay: NCI in vitro cytotoxicity (SRB); format: cell-based; details: Homo sapiens
OVCAR-4 = assay: NCI in vitro cytotoxicity (SRB); format: cell-based; details: Homo sapiens; Ovarian OVCAR-4; 48 h exposure
HOP-92 = assay: NCI in vitro cytotoxicity (SRB); format: cell-based; details: Homo sapiens; Non-smallcell lung HOP-92; 48 h exposure
HT29 = assay: NCI in vitro cytotoxicity (SRB); format: cell-based; details: Homo sapiens, HT-29; Colon HT29; 48 h exposure
T-47D = assay: NCI in vitro cytotoxicity (SRB); format: cell-based; details: Homo sapiens, T47D; Breast T-47D; 48 h exposure
RXF 393 = assay: NCI in vitro cytotoxicity (SRB); format: cell-based; details: Homo sapiens; Renal RXF 393; 48 h exposure
SK-MEL-2 = assay: NCI in vitro cytotoxicity (SRB); format: cell-based; details: Homo sapiens; Melanoma SK-MEL-2; 48 h exposure
RPMI-8226 = assay: NCI in vitro cytotoxicity (SRB); format: cell-based; details: Homo sapiens; Leukemia RPMI-8226; 48 h exposure
SNB-19 = assay: NCI in vitro cytotoxicity (SRB); format: cell-based; details: Homo sapiens; CNS SNB-19; 48 h exposure
OVCAR-8 = assay: NCI in vitro cytotoxicity (SRB); format: cell-based; details: Homo sapiens
Colon HCT-15 = details: human
HOP-62 = assay: NCI in vitro cytotoxicity (SRB); format: cell-based; details: Homo sapiens
NCI-H322M = assay: NCI in vitro cytotoxicity (SRB); format: cell-based; details: Homo sapiens; Non-smallcell lung NCI-H322M; 48 h exposure
CCRF-CEM = assay: NCI in vitro cytotoxicity (SRB); format: cell-based; details: Homo sapiens; Leukemia CCRF-CEM; 48 h exposure
EKVX = assay: NCI in vitro cytotoxicity (SRB); format: cell-based; details: Homo sapiens; Non-smallcell lung EKVX; 48 h exposure
Colon panel = assay: NCI screen, panel average; format: cell-based, human; details: for Log10 GI50 (concentration in mol/L): Colon, average of six to eight cell lines; for LC50: Homo sapiens, read-out: Log10 LC50 (concentration in mol/L causing 50% lethality) (converted)
[1] = Melanoma MALME-3M, 48 h exposure
[2] = Non-smallcell lung NCI-H522, 48 h exposure
[3] = Non-smallcell lung HOP-62, 48 h exposure

For `COc1cc2c(cc1OCCCCN1CCN(C(=S)SCCC(C#N)(c3ccccc3)c3ccccc3)CC1)N=C[C@@H]1CCCN1C2=O` [Compound 12c, 3-cyano-3,3-diphenylpropyl 4-(4-[(11aS)-7-(methyloxy)-5-oxo-2,3,5,11a-tetrahydro-1H-benzo[e]pyrrolo[1,2-a][1,4]diazepin-8-yl]oxybutyl)hexahydro-1-pyrazinecarbodithioate], the GI50 (IGROV1; Ovarian IGROV1, 48 h exposure) was 0.42 µM, the GI50 (HL-60(TB)) was 0.32 µM and the GI50 (SN12C) was 1.16 µM. It also gave a GI50 (MDA-MB-) of 1.53 µM, a GI50 (MALME-3M; [1]) of 1.36 µM and a GI50 (OVCAR-3; Ovarian OVCAR-3, 48 h exposure) of 1.2 µM. For the same compound, the “Log10 GI50 (concentration in mol/L)” value (Breast panel) was −6.02 mol/L, the LC50 (Breast panel) was 66.1 µM and the LC50 (50% lethal concentration) (Leukemia panel) was 100 µM. The “Log10 GI50 (concentration in mol/L)” value (Leukemia panel) was −6.26 mol/L, the GI50 (SK-MEL-5) was 1.11 µM and the GI50 (SK-MEL-28) was 1.75 µM. It also gave a GI50 (PC-3) of 0.69 µM, a GI50 (COLO 205) of 1.4 µM and a GI50 (SNB-75) of 1.64 µM. It also gave a GI50 (786-0) of 1.28 µM, a GI50 (UO-31) of 0.59 µM and a GI50 (SF-268; CNS SF-268, 48 h exposure) of 1.23 µM. For the same compound, the GI50 (M14) was 1.25 µM, the GI50 (NCI-H522; [2]) was 0.19 µM and the GI50 (SR; Leukemia SR, 48 h exposure) was 0.25 µM. The GI50 (UACC-62) was 1.32 µM, the GI50 (HCC-2998) was 1.57 µM and the GI50 (ACHN) was 1.16 µM. The CC50 (Prostate panel) was 7.24 µM, the “Log10 GI50 (concentration in mol/L)” value (Prostate panel) was −5.99 mol/L and the GI50 (MCF7; Breast MCF7, 48 h exposure) was 0.43 µM. For the same compound, the GI50 (OVCAR-4) was 1.82 µM, the GI50 (HOP-92) was 1.07 µM and the GI50 (HT29) was 1.13 µM. It also gave a GI50 (T-47D) of 0.57 µM, a GI50 (RXF 393) of 0.41 µM and a GI50 (SK-MEL-2) of 1.04 µM. The GI50 (RPMI-8226) was 0.49 µM, the GI50 (SNB-19) was 1.67 µM and the GI50 (OVCAR-8; Ovarian OVCAR-8, 48 h exposure) was 1.59 µM. For the same compound, the Preliminary in vitro cytotoxicity data (Colon HCT-15) was 75%, the GI50 (HOP-62; [3]) was 0.71 µM and the GI50 (NCI-H322M) was 1.4 µM. The GI50 (CCRF-CEM) was 0.53 µM, the GI50 (EKVX) was 1.88 µM and the “Log10 GI50 (concentration in mol/L)” value (Colon panel) was −5.93 mol/L. The LC50 (Colon panel) was 72.4 µM.
`COc1cc2c(cc1OCCCN1CCN(C(=S)SCCC(C#N)(c3ccccc3)c3ccccc3)CC1)N=C[C@@H]1CCCN1C2=O` [Compound 12b, 3-cyano-3,3-diphenylpropyl 4-(3-[(11aS)-7-(methyloxy)-5-oxo-2,3,5,11a-tetrahydro-1H-benzo[e]pyrrolo[1,2-a][1,4]diazepin-8-yl]oxypropyl)hexahydro-1-pyrazinecarbodithioate] gave a GI50 (IGROV1; Ovarian IGROV1, 48 h exposure) of 0.3 µM, a GI50 (IGROV1; ovarian IGROV1) of 0.3 µM and a GI50 (HL-60(TB)) of 0.25 µM. The GI50 (SN12C) was 0.64 µM, the GI50 (MDA-MB-) was 1.41 µM and the GI50 (MALME-3M; [1]) was 0.93 µM. The GI50 (MALME-3M; melanoma MALME-3M) was 0.93 µM, the GI50 (OVCAR-3; Ovarian OVCAR-3, 48 h exposure) was 0.28 µM and the GI50 (OVCAR-3; ovarian OVCAR-3) was 0.28 µM. For the same compound, the “Log10 GI50 (concentration in mol/L)” value (Breast panel) was −6.13 mol/L, the LC50 (Breast panel) was 37.2 µM and the LC50 (50% lethal concentration) (Leukemia panel) was 55 µM. The “Log10 GI50 (concentration in mol/L)” value (Leukemia panel) was −6.63 mol/L, the GI50 (SK-MEL-5) was 1.18 µM and the GI50 (SK-MEL-28) was 1.52 µM. The GI50 (PC-3) was 0.34 µM, the GI50 (COLO 205) was 1.3 µM and the GI50 (SNB-75) was 1.26 µM. For the same compound, the GI50 (786-0) was 1.06 µM, the GI50 (UO-31) was 1.1 µM and the GI50 (SF-268; SF-268, CNS SF268) was 0.28 µM. The GI50 (SF-268; CNS SF-268, 48 h exposure) was 0.28 µM, the GI50 (M14) was 1.17 µM and the GI50 (NCI-H522; [2]) was 0.17 µM. The GI50 (NCI-H522; non-small cell lung NCI-H522) was 0.17 µM, the GI50 (SR; Leukemia SR, 48 h exposure) was 0.18 µM and the GI50 (SR; leukemia SR) was 0.18 µM. The GI50 (UACC-62) was 1.06 µM, the GI50 (HCC-2998) was 1.64 µM and the GI50 (ACHN) was 0.94 µM. The CC50 (Prostate panel) was 2.4 µM, the “Log10 GI50 (concentration in mol/L)” value (Prostate panel) was −6.51 mol/L and the GI50 (MCF7; MCF7, breast MCF-7) was 0.33 µM. It also gave a GI50 (MCF7; Breast MCF7, 48 h exposure) of 0.33 µM, a GI50 (OVCAR-4) of 2.11 µM and a GI50 (HOP-92) of 1.07 µM. The GI50 (HT29) was 0.87 µM, the GI50 (T-47D) was 0.57 µM and the GI50 (RXF 393) was 0.19 µM. For the same compound, the GI50 (SK-MEL-2) was 1.16 µM, the GI50 (RPMI-8226) was 0.22 µM and the GI50 (SNB-19) was 1.23 µM. The GI50 (OVCAR-8; Ovarian OVCAR-8, 48 h exposure) was 0.99 µM, the GI50 (OVCAR-8; ovarian OVCAR-8) was 0.99 µM and the GI50 (HOP-62; [3]) was 0.12 µM. It also gave a GI50 (HOP-62; non-small cell lung HOP-62) of 0.21 µM, a GI50 (NCI-H322M) of 1.87 µM and a GI50 (CCRF-CEM) of 0.23 µM. The GI50 (EKVX) was 2.29 µM, the “Log10 GI50 (concentration in mol/L)” value (Colon panel) was −6.02 mol/L and the LC50 (Colon panel) was 8.51 µM.
